We go through one compound from US20030199530A1, “New compounds derived from quinazoline” (priority 2002, published 2003).

One assay has as its target T1, FTase (Rattus norvegicus, UniProt Q02293+Q04631).
T1 construct: The two enzymes FTase and GGTase-I were purified starting from rat's brain; from tissue; host or cells: rat brain
As to the kind of experiment: FTase enzyme test (scintillation proximity assay). The class given is biochemical. Conditions: rat brain FTase, biotinylated lamin B peptide, [3H]farnesyl pyrophosphate, 37° C., one hour; read-out: IC50 with respect to FTase. As for the experimental part:
The two enzymes FTase and GGTase-I were purified starting from rat's brain. After grinding and centrifuging, the supernatant is precipitated with 30% ammonium sulphate and the resulting supernatant is subjected to another precipitation with 50% ammonium sulphate. The pellet is then passed through a column of phenyl agarose and the fractions collected after elution with sodium chloride are evaluated for their enzyme content in accordance with the “scintillation proximity assay” method described hereinbelow. The fractions corresponding to one or other of the two enzymes are then combined and frozen at −80° C. until use.
The determination of the enzymatic activity of the FTase is carried out in 96-well plates by a radioactive scintillation proximity assay method. The acceptor substrate composed of the carboxy terminal sequence of lamin B (YRASNRSCAIM) coupled to biotin is incubated in the presence of the radiolabelled donor substrate ([^3H]farnesyl pyrophosphate), and of various concentrations of test compounds in dimethyl sulphoxide (DMSO). The reaction is initiated at 37° C. by adding FTase enzyme for a duration of one hour, and is then stopped with an appropriate buffer containing a suspension of beads impregnated with scintillant. […]

For assay [1], the system named is cells transfected with v-H-ras. As to the kind of experiment: Cell proliferation test (MTT) on RAT2 fibroblasts transfected with v-H-ras. The class given is cell-based. Conditions: Rattus norvegicus, 96 h, RAT2 transfectant, 10% serum, four days, read-out: IC50 of inhibition of growth of cells transfected by the oncogene v-H-ras. As for the experimental part:
a) The RAT2 line of rat fibroblasts and an appropriate transfectant for the insertion of the gene v-H-ras were used to test the effectiveness of the claimed products on cells.
The parental and transfected cells are cultured in 96-well plates for cell culture in the presence of medium containing 10% serum. Twenty four hours later, the test products are added to the same medium over a period of four days and the final quantity of cells is estimated indirectly by the cell viability method using 3-(4,5-dimethylthiazol-2-yl)-2,5-diphenyltetrazolium bromide (MTT).

Regarding `CC(C)(C)OC(=O)Nc1ccc(-n2c(=O)c3ccccc3n(CC(Cc3ccccc3)Cn3ccnc3)c2=O)cc1` (centres unmarked) [Example 2, tert-Butyl 4-(1-[2-benzyl-3-(1H-imidazol-1-yl)propyl]-2,4-dioxo-1,4-dihydro-3(2H)-quinazolinyl)phenylcarbamate], the half-inhibitory concentration (IC50) at FTase came to 19 nM; in assay [1], 9 nM.

As a reminder, the IC50 is the concentration that gives 50% inhibition.
